Common to all, as to type: functional
The test system of test [1] is Macrophage. The test is described as follows: Antiinflammatory activity in Escherichia coli O6:K2:H1-induced human M1 macrophage assessed as change in 15-HETE level at 10 uM preincubated for 10 mins followed by Escherichia coli O6:K2:H1-stimulation and measured after 180 mins by UPLC-MS/MS analysis relative to control.
The subject of test [2] is Macrophage. The test is described as follows: Antiinflammatory activity in Escherichia coli O6:K2:H1-induced human M2 macrophage assessed as change in 12-HETE level at 1 uM preincubated for 10 mins followed by Escherichia coli O6:K2:H1-stimulation and measured after 180 mins by UPLC-MS/MS analysis relative to control.
Test [3] deals with Macrophage. Put plainly: Antiinflammatory activity in Escherichia coli O6:K2:H1-induced human M1 macrophage assessed as change in LTB4 level at 1 uM preincubated for 10 mins followed by Escherichia coli O6:K2:H1-stimulation and measured after 180 mins by UPLC-MS/MS analysis relative to control.
Test [4] deals with Macrophage. Put plainly: Antiinflammatory activity in Escherichia coli O6:K2:H1-induced human M2 macrophage assessed as change in […] level at 1 uM preincubated for 10 mins followed by Escherichia coli O6:K2:H1-stimulation and measured after 180 mins by UPLC-MS/MS analysis relative to control.
For test [5], the system named is Macrophage. Put plainly: Antiinflammatory activity in Escherichia coli O6:K2:H1-induced human M2 macrophage assessed as change in 5-HEPE level at 1 uM preincubated for 10 mins followed by Escherichia coli O6:K2:H1-stimulation and measured after 180 mins by UPLC-MS/MS analysis relative to control.
Test [6] has as its system Macrophage. The test is described as follows: Antiinflammatory activity in Escherichia coli O6:K2:H1-induced human M2 macrophage assessed as change in 5-HETE level at 10 uM preincubated for 10 mins followed by Escherichia coli O6:K2:H1-stimulation and measured after 180 mins by UPLC-MS/MS analysis relative to control.
Test [7] deals with Macrophage. The test is described as follows: Antiinflammatory activity in Escherichia coli O6:K2:H1-induced human M2 macrophage assessed as change in total LTB4 level at 1 uM preincubated for 10 mins followed by Escherichia coli O6:K2:H1-stimulation and measured after 180 mins by UPLC-MS/MS analysis relative to control.
The test system of test [8] is Macrophage. Put plainly: Antiinflammatory activity in Escherichia coli O6:K2:H1-induced human M1 macrophage assessed as change in 15-HEPE level at 10 uM preincubated for 10 mins followed by Escherichia coli O6:K2:H1-stimulation and measured after 180 mins by UPLC-MS/MS analysis relative to control.
Test [9] concerns Macrophage. Put plainly: Antiinflammatory activity in Escherichia coli O6:K2:H1-induced human M1 macrophage assessed as change in 7-HDHA level at 10 uM preincubated for 10 mins followed by Escherichia coli O6:K2:H1-stimulation and measured after 180 mins by UPLC-MS/MS analysis relative to control.
Test [10] relates to Macrophage. The test is described as follows: Antiinflammatory activity in Escherichia coli O6:K2:H1-induced human M1 macrophage assessed as change in 12-HEPE level at 1 uM preincubated for 10 mins followed by Escherichia coli O6:K2:H1-stimulation and measured after 180 mins by UPLC-MS/MS analysis relative to control.
The test system of test [11] is Macrophage. Put plainly: Antiinflammatory activity in Escherichia coli O6:K2:H1-induced human M1 macrophage assessed as change in 5-HETE level at 1 uM preincubated for 10 mins followed by Escherichia coli O6:K2:H1-stimulation and measured after 180 mins by UPLC-MS/MS analysis relative to control.
Test [12] relates to Macrophage. Put plainly: Antiinflammatory activity in Escherichia coli O6:K2:H1-induced human M1 macrophage assessed as change in total LTB4 level at 1 uM preincubated for 10 mins followed by Escherichia coli O6:K2:H1-stimulation and measured after 180 mins by UPLC-MS/MS analysis relative to control.
Test [13] deals with Macrophage. The test is described as follows: Antiinflammatory activity in Escherichia coli O6:K2:H1-induced human M1 macrophage assessed as change in 5.15-dlHETE level at 1 uM preincubated for 10 mins followed by Escherichia coli O6:K2:H1-stimulation and measured after 180 mins by UPLC-MS/MS analysis relative to control.
For test [14], the system named is Macrophage. The test is described as follows: Antiinflammatory activity in Escherichia coli O6:K2:H1-induced human M1 macrophage assessed as change in PGD2 level at 10 uM preincubated for 10 mins followed by Escherichia coli O6:K2:H1-stimulation and measured after 180 mins by UPLC-MS/MS analysis relative to control.
The subject of test [15] is Macrophage. The test is described as follows: Antiinflammatory activity in Escherichia coli O6:K2:H1-induced human M2 macrophage assessed as change in 18-HEPE level at 10 uM preincubated for 10 mins followed by Escherichia coli O6:K2:H1-stimulation and measured after 180 mins by UPLC-MS/MS analysis relative to control.
Test [16] relates to Macrophage. Put plainly: Antiinflammatory activity in Escherichia coli O6:K2:H1-induced human M1 macrophage assessed as change in 18-HEPE level at 1 uM preincubated for 10 mins followed by Escherichia coli O6:K2:H1-stimulation and measured after 180 mins by UPLC-MS/MS analysis relative to control.
Test [17] deals with Macrophage. Put plainly: Antiinflammatory activity in Escherichia coli O6:K2:H1-induced human M2 macrophage assessed as change in PGD2 level at 10 uM preincubated for 10 mins followed by Escherichia coli O6:K2:H1-stimulation and measured after 180 mins by UPLC-MS/MS analysis relative to control.
Test [18] concerns Macrophage. The test is described as follows: Antiinflammatory activity in Escherichia coli O6:K2:H1-induced human M2 macrophage assessed as change in 7-HDHA level at 1 uM preincubated for 10 mins followed by Escherichia coli O6:K2:H1-stimulation and measured after 180 mins by UPLC-MS/MS analysis relative to control.
The subject of test [19] is Macrophage. The test is described as follows: Antiinflammatory activity in Escherichia coli O6:K2:H1-induced human M2 macrophage assessed as change in 17-HDHA level at 10 uM preincubated for 10 mins followed by Escherichia coli O6:K2:H1-stimulation and measured after 180 mins by UPLC-MS/MS analysis relative to control.
For test [20], the system named is Macrophage. Put plainly: Antiinflammatory activity in Escherichia coli O6:K2:H1-induced human M1 macrophage assessed as change in LTB4 level at 10 uM preincubated for 10 mins followed by Escherichia coli O6:K2:H1-stimulation and measured after 180 mins by UPLC-MS/MS analysis relative to control.
Test [21] deals with Macrophage. The test is described as follows: Antiinflammatory activity in Escherichia coli O6:K2:H1-induced human M1 macrophage assessed as change in PGF2alpha level at 10 uM preincubated for 10 mins followed by Escherichia coli O6:K2:H1-stimulation and measured after 180 mins by UPLC-MS/MS analysis relative to control.
Test [22] has as its system Macrophage. Put plainly: Antiinflammatory activity in Escherichia coli O6:K2:H1-induced human M2 macrophage assessed as change in 5.15-dlHETE level at 1 uM preincubated for 10 mins followed by Escherichia coli O6:K2:H1-stimulation and measured after 180 mins by UPLC-MS/MS analysis relative to control.
Test [23] has as its system Macrophage. The test is described as follows: Antiinflammatory activity in Escherichia coli O6:K2:H1-induced human M2 macrophage assessed as change in LTB4 level at 1 uM preincubated for 10 mins followed by Escherichia coli O6:K2:H1-stimulation and measured after 180 mins by UPLC-MS/MS analysis relative to control.
Test [24] has as its system Macrophage. The test is described as follows: Antiinflammatory activity in Escherichia coli O6:K2:H1-induced human M1 macrophage assessed as change in 5-HEPE level at 10 uM preincubated for 10 mins followed by Escherichia coli O6:K2:H1-stimulation and measured after 180 mins by UPLC-MS/MS analysis relative to control.

Turning to `O=C(Cc1ccc(Oc2nc3ccccc3s2)cc1F)NCCc1ccc(F)cc1`, the Activity in the test on Macrophage [1] is 151%; in the test with Macrophage [2] it was 87%; with Macrophage [3], 181%; in the test with Macrophage [4], 64%; with Macrophage [5], 93%; in the test on Macrophage [6], 44%. Moreover, the Activity in the test on Macrophage [7] was 83%; in the test with Macrophage [8], 191%; with Macrophage [9] it was 66%; in the test on Macrophage [10], 95%; in the test on Macrophage [11], 164%; in the test on Macrophage [12], 132%. Moreover, the Activity in the test on Macrophage [13] was found to be 152%; in the test on Macrophage [14], 97%; in the test on Macrophage [15], 96%; with Macrophage [16] it was 74%; in the test with Macrophage [17], 64%; with Macrophage [18] it was 94%. The Activity came out at 135% in the test with Macrophage [19]; 11% in the test on Macrophage [20]; 80% with Macrophage [21]; 93% in the test on Macrophage [22]; 72% in the test with Macrophage [23]; 65% in the test with Macrophage [24].

(Values after ChEMBL document CHEMBL4342480, “Design of Dual Inhibitors of Soluble Epoxide Hydrolase and LTA4 Hydrolase” (ACS Med Chem Lett, 2020).)
